{"source": "paper PMC10352257", "about": "“In vivo effects of the alpha-synuclein misfolding inhibitor minzasolmin supports clinical development in Parkinson’s disease” (NPJ Parkinson's Disease, 2023)", "key": {"[1]": {"design": "method as in PMID 35959805", "settings": "normal healthy volunteers and patients with Parkinson's disease; cited from earlier work"}, "[2]": {"experiment": "Bioanalysis of compound levels in plasma and brain after long-term treatment", "type": "in vivo", "settings": "mouse, ip, Line 61 transgenic mice, 1 h post final dose, mean ± S.E.M.", "description": "Minzasolmin was dissolved in a vehicle solution consisting of 40% Captisol (CyDex Pharmaceuticals, Inc.; Kansas, USA) in sterile water and administered at a volume of 0.1 ml/20 g of body weight. Animals received a Monday–Friday daily intraperitoneal injection of vehicle, or 1 or 5 mg/kg minzasolmin for approximately 90 days. Animals received treatment up to and including a final injection 1 h prior to euthanasia. All study solutions were blind coded and experimenters were blinded to genotype and treatment group assignments for the duration of the study, ex vivo evaluations (i.e., neuropathology sample processing and imaging, videotape scoring) and through penultimate data analyses (i.e., data quality control with documented exclusions prior to unblinding; unblinding required for a priori pairwise comparisons).\nAll subjects were euthanized within 1 h of the last treatment and brain and blood were collected. Tissue processing and imaging methods were conducted as described previously[17],[18],[52] and performed under a lab service agreement between UCSD and Neuropore Therapies. All samples were blind coded to genotype and treatment group throughout immune-histological processing and imaging. The right hemibrain was post-fixed in phosphate-buffered 4% paraformaldehyde (pH 7.4) at 4 °C for 48 and then serially sectioned into […] thick sagittal sections using a vibratome. Sections were free-floated and incubated overnight at 4 °C with primary antibodies. To confirm the specificity of primary antibodies, control experiments were performed in which sections were incubated overnight in the absence of primary antibody, pre-immune serum, or primary antibody pre-adsorbed for 48 h with 20-fold excess of the corresponding peptide. Tissue collection, processing, and imaging methods were conducted as described previously. Briefly, the right hemibrain was post-fixed in phosphate-buffered 4% paraformaldehyde (pH 7.4) at 4 °C for 48 h, and then serially sectioned into 40 µm thick coronal sections using a vibratome. Sections were free-floated and incubated overnight at 4 °C with primary antibodies. To confirm the specificity of primary antibodies, control experiments were performed in which sections were incubated overnight in the absence of primary antibody (data not shown). Immunolabeled sections were imaged with a Zeiss 63× (N.A. 1.4) objective on an Axiovert 35 microscope (Zeiss, Germany). Immunolabeling was evaluated as a corrected optical density across a field of view. Summary tables of statistics for each measure are presented in Supplementary Tables 1–5.\nAnalysis of minzasolmin by HPLC-MS/MS in plasma and brain homogenate study subject samples was conducted by PRA Health Sciences (Lenexa, KS, USA). Group means were obtained using Graph Pad Prism v. […]"}, "[3]": {"tested_on": "Line 61 transgenic mice", "experiment": "Round beam traversal test (composite gait score), 3-month administration study", "type": "in vivo, mouse", "settings": "for round beam composite score, Kruskal-Wallis mean rank: Line 61 tg, Line 61 tg/Vehicle 6.611, Non-tg/Vehicle 34.25", "text": "A transgenic mouse model of Parkinson’s disease overexpressing human wild-type ASYN under the murine Thy-1 promoter on a mixed C57Bl/6 background was used in the present studies (commonly referred to Line 61)[49]. The Line 61 transgenic mouse model of Parkinson’s disease develops extensive accumulation of ASYN in areas relevant to Parkinson’s disease[49]–[51], neurodegeneration (as evidenced by loss of tyrosine hydroxylase[52],[53] and dopamine transporter immunoreactivity[18] in the striatum), inflammation, and both motor and non-motor functional deficits. Multiple cohorts of mice were transferred from the University of California, San Diego to a Neuropore-funded AAALAC-accredited vivarium facility per a laboratory service agreement between Neuropore Therapies, Inc. and the laboratory of Dr. Eliezer Masliah under institutional animal care and use committee (IACUC) Protocol S02221. All in vivo testing was conducted by Neuropore personnel under Explora Biosciences animal care and use protocol (ACUP) number E15-016-2. Three-month-old male transgenic and age-matched non-transgenic littermate control mice were used and housed up to 5 per cage. Animals received free access to food and water prior to the experiment. The vivarium ambient room temperature was monitored daily and kept within a range of 68–72 degrees Fahrenheit. […]\nLine 61 transgenic mice have robust and visually apparent deficits in gait as evaluated in the round beam traversal test by 6 months of age that are improved by treatment with small molecule compounds including ASYN misfolding inhibitors[17],[18] and the molecular tweezer compound CLR01[56]. […] Videotapes were then scored by a secondary evaluator using a newly developed composite rating system for specific observed features of Line 61 gait during the round beam assessment. […] Scores were analyzed by nonparametric Kruskal–Wallis one-way ANOVA with key comparisons defined a priori, first to test for a phenotypic difference between vehicle-treated groups and then to test for minzasolmin-related treatment effects in Line 61 transgenic mice. […]"}, "[4]": {"tested_on": "Line 61 transgenic mice", "experiment": "Grip strength, Line 61 transgenic mice", "type": "in vivo, mouse", "settings": "1 and 5 mg/kg, re-test after treatment, two-way ANOVA with repeated measures", "text": "A transgenic mouse model of Parkinson’s disease overexpressing human wild-type ASYN under the murine Thy-1 promoter on a mixed C57Bl/6 background was used in the present studies (commonly referred to Line 61)[49]. The Line 61 transgenic mouse model of Parkinson’s disease develops extensive accumulation of ASYN in areas relevant to Parkinson’s disease[49]–[51], neurodegeneration (as evidenced by loss of tyrosine hydroxylase[52],[53] and dopamine transporter immunoreactivity[18] in the striatum), inflammation, and both motor and non-motor functional deficits. […] The vivarium ambient room temperature was monitored daily and kept within a range of 68–72 degrees Fahrenheit. […]\nNonetheless, a baseline measurement of grip strength is always included to confirm existing deficits in Line 61 transgenic mice and to inform pseudorandomized treatment group assignment (i.e., ensuring that each treatment group started with a similar distribution of grip strength performances). […] The dependent measure, peak strength (in grams of force), was determined per trial and as an average for each animal across trials. […]"}}, "note": "Entries after “also recorded” stand apart in the source; their conditions may differ. Where two headings read alike, the source gives them in different places."}
{"compound": "CCCC[C@H](Cc1c[nH]c2ccccc12)NC(=O)c1cnc(N2CCN(C)CC2)s1", "note": "[minzasolmin]", "values": [{"measurement": "safety and pharmacokinetic profiles", "setting": "[1]", "value": "favorable"}, {"measurement": "concentration at 1 h", "setting": "[2]; brain, 1 mg/kg i.p. daily about 90 days, read-out: [minzasolmin] Brain", "value": "12.1 ± 1.5", "unit": "ng/g"}, {"measurement": "concentration at 1 h", "setting": "[2]; brain, 5 mg/kg i.p. daily about 90 days, read-out: [minzasolmin] Brain", "value": "69.5 ± 4.7", "unit": "ng/g"}, {"measurement": "concentration at 1 h", "setting": "[2]; plasma, 1 mg/kg i.p. daily about 90 days, read-out: [minzasolmin] Plasma", "value": "0.0723 ± 0.0079", "unit": "µg/mL"}, {"measurement": "concentration at 1 h", "setting": "[2]; plasma, 5 mg/kg i.p. daily about 90 days, read-out: [minzasolmin] Plasma", "value": "0.357 ± 0.0168", "unit": "µg/mL"}, {"measurement": "effect on round beam composite score (gait) vs vehicle-treated Line 61 transgenic mice", "setting": "[3]; 1 mg/kg, after 70 days of treatment, P < 0.01", "value": "improved; also recorded: attenuated"}, {"measurement": "round beam composite score, Kruskal-Wallis mean rank", "setting": "[3]; 1 mg/kg", "value": 21.77}, {"measurement": "round beam composite score, Kruskal-Wallis mean rank", "setting": "[3]; 5 mg/kg", "value": 16.80}, {"measurement": "effect of chronic treatment on grip strength of Line 61 transgenic mice", "setting": "[4]", "value": "no statistically significant benefits"}]}
